Test results reported in ChEMBL document CHEMBL1782000, “Thiazole-based chalcones as potent antimicrobial agents. Synthesis and biological evaluation” (2011).
Converted amounts (≈) assume the structure as drawn.

Tests used:
Aspergillus ochraceus [1] = assay: Antifungal activity against Aspergillus ochraceus ATCC 12066 after 72 hrs by serial dilution method; type: functional; conditions: ATCC 12066, 72 h
Aspergillus versicolor [2] = assay: Antifungal activity against Aspergillus versicolor ATCC 11730 after 72 hrs by serial dilution method; type: functional; conditions: ATCC 11730, 72 h
Aspergillus niger [3] = assay: Antifungal activity against Aspergillus niger ATCC 6275 after 72 hrs by serial dilution method; type: functional; conditions: ATCC 6275, 72 h
Aspergillus fumigatus [4] = assay: Antifungal activity against Aspergillus fumigatus plant isolate after 72 hrs by serial dilution method; type: functional
Trichoderma viride [5] = assay: Antifungal activity against Trichoderma viride IAM 5061 after 72 hrs by serial dilution method; type: functional; conditions: IAM 5061, 72 h
Penicillium ochrochloron [6] = assay: Antifungal activity against Penicillium ochrochloron ATCC 9112 after 72 hrs by serial dilution method; type: functional; conditions: ATCC 9112, 72 h
Talaromyces funiculosus [7] = assay: Antifungal activity against Penicillium funiculosum ATCC 36839 after 72 hrs by serial dilution method; type: functional; conditions: ATCC 36839, 72 h
[8] = Antifungal activity against Fusarium sporotrichioides IMT 496 after 72 hrs by serial dilution method; type: functional
Aspergillus ochraceus [9] = assay: Fungicidal activity against Aspergillus ochraceus ATCC 12066 after 72 hrs; type: functional; conditions: ATCC 12066, 72 h
Aspergillus versicolor [10] = assay: Fungicidal activity against Aspergillus versicolor ATCC 11730 after 72 hrs; type: functional; conditions: ATCC 11730, 72 h
Aspergillus niger [11] = assay: Fungicidal activity against Aspergillus niger ATCC 6275 after 72 hrs; type: functional; conditions: ATCC 6275, 72 h
Aspergillus fumigatus [12] = assay: Fungicidal activity against Aspergillus fumigatus plant isolate after 72 hrs; type: functional
Trichoderma viride [13] = assay: Fungicidal activity against Trichoderma viride IAM 5061 after 72 hrs; type: functional; conditions: IAM 5061, 72 h
Penicillium ochrochloron [14] = assay: Fungicidal activity against Penicillium ochrochloron ATCC 9112 after 72 hrs; type: functional; conditions: ATCC 9112, 72 h
Talaromyces funiculosus [15] = assay: Fungicidal activity against Penicillium funiculosum ATCC 36839 after 72 hrs; type: functional; conditions: ATCC 36839, 72 h
[16] = test system: Fusarium sporotrichioides; assay: Fungicidal activity against Fusarium sporotrichioides IMT 496 after 72 hrs; type: functional; conditions: IMT 496, 72 h
Staphylococcus aureus [17] = assay: Antibacterial activity against Staphylococcus aureus ATCC 6538 after 24 hrs by microdilution method; type: functional; conditions: ATCC 6538, 24 h
Bacillus cereus [18] = assay: Antibacterial activity against Bacillus cereus clinical isolate after 24 hrs by microdilution method; type: functional
Micrococcus flavus [19] = assay: Antibacterial activity against Micrococcus flavus ATCC 10240 after 24 hrs by microdilution method; type: functional; conditions: ATCC 10240, 24 h
Listeria monocytogenes [20] = assay: Antibacterial activity against Listeria monocytogenes NCTC 7973 after 24 hrs by microdilution method; type: functional; conditions: NCTC 7973, 24 h
Pseudomonas aeruginosa [21] = assay: Antibacterial activity against Pseudomonas aeruginosa ATCC 27853 after 24 hrs by microdilution method; type: functional; conditions: ATCC 27853, 24 h
Salmonella typhimurium [22] = assay: Antibacterial activity against Salmonella Typhimurium ATCC 13311 after 24 hrs by microdilution method; type: functional, Salmonella enterica subsp. enterica serovar Typhimurium; conditions: Salmonella enterica, ATCC 13311, 24 h
Escherichia coli [23] = assay: Antibacterial activity against Escherichia coli ATCC 35210 after 24 hrs by microdilution method; type: functional; conditions: ATCC 35210, 24 h
Enterococcus faecalis [24] = assay: Antibacterial activity against Enterococcus faecalis isolate obtained from human after 24 hrs by microdilution method; type: functional
Staphylococcus aureus [25] = assay: Bactericidal activity against Staphylococcus aureus ATCC 6538 after 24 hrs; type: functional; conditions: ATCC 6538, 24 h
Bacillus cereus [26] = assay: Bactericidal activity against Bacillus cereus clinical isolate after 24 hrs; type: functional
Micrococcus flavus [27] = assay: Bactericidal activity against Micrococcus flavus ATCC 10240 after 24 hrs; type: functional; conditions: ATCC 10240, 24 h
Listeria monocytogenes [28] = assay: Bactericidal activity against Listeria monocytogenes NCTC 7973 after 24 hrs; type: functional; conditions: NCTC 7973, 24 h
Pseudomonas aeruginosa [29] = assay: Bactericidal activity against Pseudomonas aeruginosa ATCC 27853 after 24 hrs; type: functional; conditions: ATCC 27853, 24 h
Salmonella typhimurium [30] = assay: Bactericidal activity against Salmonella Typhimurium ATCC 13311 after 24 hrs; type: functional, Salmonella enterica subsp. enterica serovar Typhimurium; conditions: Salmonella enterica, ATCC 13311, 24 h
Escherichia coli [31] = assay: Bactericidal activity against Escherichia coli ATCC 35210 after 24 hrs; type: functional; conditions: ATCC 35210, 24 h
Enterococcus faecalis [32] = assay: Bactericidal activity against Enterococcus faecalis isolate obtained from human after 24 hrs; type: functional

Compound | MIC (Staphylococcus aureus [17]) [µM] | MIC (Bacillus cereus [18]) [µM] | MIC (Micrococcus flavus [19]) [µM] | MIC (Listeria monocytogenes [20]) [µM] | MIC (Pseudomonas aeruginosa [21]) [µM] | MIC (Salmonella typhimurium [22]) [µM] | MIC (Escherichia coli [23]) [µM] | MIC (Enterococcus faecalis [24]) [µM] | MBC (Staphylococcus aureus [25]) [µM] | MBC (Bacillus cereus [26]) [µM] | MBC (Micrococcus flavus [27]) [µM] | MBC (Listeria monocytogenes [28]) [µM] | MBC (Pseudomonas aeruginosa [29]) [µM] | MBC (Salmonella typhimurium [30]) [µM] | MBC (Escherichia coli [31]) [µM] | MBC (Enterococcus faecalis [32]) [µM] | further results
c1ccc(-c2ccc(C(c3ccccc3)n3ccnc3)cc2)cc1 (stereo not drawn) [BIFONAZOLE] |  |  |  |  |  |  |  |  |  |  |  |  |  |  |  |  | MIC (Aspergillus ochraceus [1]): 403 µM (≈ 125 µg/mL); MIC (Aspergillus versicolor [2]): 25.1 µM (≈ 7.79 µg/mL); MIC (Aspergillus niger [3]): 50.3 µM (≈ 15.6 µg/mL); MIC (Aspergillus fumigatus [4]): 3.2 µM (≈ 0.993 µg/mL); MIC (Trichoderma viride [5]): 806 µM (≈ 250 µg/mL); MIC (Penicillium ochrochloron [6]): 403 µM (≈ 125 µg/mL); MIC (Talaromyces funiculosus [7]): 1610 µM (≈ 500 µg/mL); MIC (10'-2 umol/ml) [8]: 8.06; MFC (Aspergillus ochraceus [9]): 806 µM (≈ 250 µg/mL); MFC (Aspergillus versicolor [10]): 1610 µM (≈ 500 µg/mL); MFC (Aspergillus niger [11]): 201 µM (≈ 62.5 µg/mL); MFC (Aspergillus fumigatus [12]): 61.2 µM (≈ 19 µg/mL); MFC (Trichoderma viride [13]): 1610 µM (≈ 500 µg/mL); MFC (Penicillium ochrochloron [14]): 1610 µM (≈ 500 µg/mL); MFC (Talaromyces funiculosus [15]): 2420 µM (≈ 750 µg/mL); MFC [16]: 806 µM (≈ 250 µg/mL)
CN[C@@H]1[C@H](O[C@H]2[C@H](O[C@H]3[C@H](O)[C@@H](O)[C@H](N=C(N)N)[C@@H](O)[C@@H]3N=C(N)N)O[C@@H](C)[C@]2(O)C=O)O[C@@H](CO)[C@H](O)[C@H]1O [STREPTOMYCIN] | 17.1 (≈ 9.95 µg/mL) | 2 (≈ 1.16 µg/mL) | 2 (≈ 1.16 µg/mL) | 17.1 (≈ 9.95 µg/mL) | 2 (≈ 1.16 µg/mL) | 2 (≈ 1.16 µg/mL) | 8.6 (≈ 5 µg/mL) | 4.3 (≈ 2.5 µg/mL) | 42.9 (≈ 24.9 µg/mL) | 4.3 (≈ 2.5 µg/mL) | 4.3 (≈ 2.5 µg/mL) | 43 (≈ 25 µg/mL) | 4.3 (≈ 2.5 µg/mL) | 4.3 (≈ 2.5 µg/mL) | 17.1 (≈ 9.95 µg/mL) | 8.6 (≈ 5 µg/mL) | 
CC1(C)S[C@@H]2[C@H](NC(=O)[C@H](N)c3ccccc3)C(=O)N2[C@H]1C(=O)O [AMPICILLIN] | 248 (≈ 86.6 µg/mL) | 248 (≈ 86.6 µg/mL) | 248 (≈ 86.6 µg/mL) | 248 (≈ 86.6 µg/mL) | 248 (≈ 86.6 µg/mL) | 248 (≈ 86.6 µg/mL) | 248 (≈ 86.6 µg/mL) | 248 (≈ 86.6 µg/mL) | 372 (≈ 130 µg/mL) | 372 (≈ 130 µg/mL) | 372 (≈ 130 µg/mL) | 372 (≈ 130 µg/mL) | 372 (≈ 130 µg/mL) | 372 (≈ 130 µg/mL) | 372 (≈ 130 µg/mL) | 372 (≈ 130 µg/mL) | 
